Laboratory results taken from patent US12378193B2, “Anti-arrhythmicity agents” (The Regents of the University of California, priority 2014, dated 2025).

Legend:
[1] = tested on: Zebrafish embryo injected with morpholino to NCX1h; experiment: Zebrafish screening: injection with morpholino to NCX1h; format: in vivo; conditions: for Injection with Morpholino: % Rescued: Table 1; for Rescue percent: Table 3, morpholino mutants
Experimental: (§1) We screened our above mention library by using tremblor mutants Zebrafish embryos. […] Compounds were screened for their ability to suppress cardiac fibrillation and/or restore rhythmic synchronized contraction. Briefly, we treated the embryo by soaking in 20 μM solution or injecting compounds after 24 hours fertilization and observed the phenotype after 48 hours. Further, we determined the structure-activity relationship (SAR) between the active compound's structures and the ability to suppress cardiac fibrillation and/or restore rhythmic synchronized contraction.
Zebrafish eggs were collected at 1 cell stages. 1 nL of compound in Daneu's buffer and 1 nL of morpholino (1 mM) to NCX1h was injected into the embryo. After 24 hours the embryo was arrayed in 24-well plates (20 twenty embryos/well) in 500 μL buffer. After 48 hour fertilization in 29° C., phenotypic changes were observed using a high magnification dissecting microscope.

[2] = tested on: Zebrafish tremblor mutant; experiment: Zebrafish screening: injection into tremblor mutants; format: in vivo; conditions: for Injection into tremblor Mutants: % Rescued: Table 1; for Average rescue ratio: Table 4, over all screens
Experimental: as §1
Zebrafish tremblor mutant eggs were collected at 1 cell stages. 1 nL of compound in Daneu's buffer were injected into the embryo. After 24 hours the embryo was arrayed in 24-well plates (20 twenty embryos/well) in 500 μL buffer. After 48 hour fertilization in 29° C., phenotypic changes were observed using a high magnification dissecting microscope.

[3] = tested on: zebrafish tremblor (tre) embryos; experiment: Restoration of coordinated cardiac contractions in tre embryos; format: in vivo; conditions: tremblor embryos
Experimental: (§2) VDAC2 mRNA and morpholino antisense oligos (5′-[…]-3′) (Genetools) (SEQ ID NO: 9) were injected into one-cell stage embryos collected from crosses of tre^tc318 heterozygotes. Cardiac performance was analyzed by visual inspection on 1 dpf. The tre mutant embryos were identified either by observing the fibrillation phenotype at 2-3 dpf or by genotyping as previously described (Langenbacher et al., 2005).
(§3) Chemicals from a synthetic library (Castellano et al., 2007, J Am Chem Soc 129, 5843-5845; Choi et al., 2011, Development 138, 1173-1181; Cruz et al., 2011, Proc Natl Acad Sci USA 108, 6769-6774) and from Biomol International LP were screened for their ability to partially or completely restore persistent heartbeat in tre embryos. 12 embryos collected from crosses of tre^tc318 heterozygotes were raised in the presence of individual compounds at a concentration of 10 μM from 4 hpf (Choi et al., 2011). Cardiac function was analyzed by visual inspection at 1 and 2 dpf. The hearts of tre^tc318 embryos manifest a chaotic movement resembling cardiac fibrillation with intermittent contractions in rare occasion (Ebert et al., 2005; Langenbacher et al., 2005). Compounds that elicit persistent coordinated cardiac contractions were validated on large number of tre mutant embryos and NCX1h morphants (>500 embryos).

NCX1hMO injected embryos = experiment: Restoration of coordinated cardiac contractions in NCX1h morpholino embryos; format: in vivo, zebrafish; conditions: linker-attached compounds
Experimental: as §2, §3

VDAC2 = experiment: Affinity bead pull down from zebrafish embryo lysate with mass spectrometry; format: binding; conditions: zebrafish embryonic lysate, affinity agarose beads
Experimental: For pull down assays mono-N-Boc protected 2,2′-(ethylenedioxy)bis(ethylamine) was attached to the carboxylic ester of efsevin and its derivatives through the amide bond. After removal of the Boc group using TFA, the primary amine was coupled to the carboxylic acid of Affi-Gel 10 Gel (Biorad). Two-day-old zebrafish embryos were deyolked by centrifugation before being lysed with Rubinfeld's lysis buffer (Rubinfeld et al., 1993, Science 262, 1731-1734). The lysate was precleaned by incubation with Affi-Gel 10 Gel to eliminate non-specific binding. Precleaned lysate was incubated with affinity beads overnight. Proteins were eluted from the affinity beads and separated on SDS-PAGE. Protein bands of interest were excised. Gel plugs were dehydrated in acetonitrile (ACN) and dried completely in a Speedvac. Samples were reduced and alkylated with 10 mM dithiotreitol and 10 mM TCEP solution in 50 mM NH4HCO3 (30 min at 56° C.) and 100 mM iodoacetamide (45 min in dark), respectively. Gel plugs were washed with 50 mM NH4HCO3, dehydrated with ACN, and dried down in a Speedvac. Gel pieces were then swollen in digestion buffer containing 50 mM NH4HCO3, and 20.0 ng/μL of chymotrypsin (25° C., overnight). Peptides were extracted with 0.1% TFA in 50% ACN solution, dried down and resuspended in LC buffer A (0.1% formic acid, 2% ACN).
Extracted peptides were analyzed by nano-flow LC/MS/MS on a Thermo Orbitrap with dedicated Eksigent nanopump using a reversed phase column (New Objective). The flow rate was 200 nL/min for separation: mobile phase A contained 0.1% formic acid, 2% ACN in water, and mobile phase B contained 0.1% formic acid, 20% water in ACN. The gradient used for analyses was linear from 5% B to 50% B over 60 min, then to 95% B over 15 min, and finally keeping constant 95% B for 10 min. Spectra were acquired in data-dependent mode with dynamic exclusion where the instrument selects the top six most abundant ions in the parent spectra for fragmentation. […]

[4] = tested on: Zebrafish tremblor mutant; experiment: Zebrafish screening: soaking; format: in vivo; conditions: for Soaking: % Rescued: Table 1, tremblor mutants, 20 μM; for Rescue percent: Table 2, tremblor mutant soaked in 20 μM test compounds
Experimental: as §1
Zebrafish tremblor mutant eggs were collected after fertilization, and arrayed in 24-well plates (20 twenty embryos/well) in 500 μL buffer. After 24 hour fertilization in 29° C., 20 μM testing compound was added and using E3 buffer as background control. After 48 hour fertilization in 29° C., phenotypic changes were observed using a high magnification dissecting microscope.

[5] = Table 4, injection into tremblor mutants

## CCOC(=O)C1=CCN(S(=O)(=O)c2cccc(Cl)c2)C1c1cccc(Cl)c1 (centres unmarked) [F7-I-F11]
[1]
  Injection with Morpholino: % Rescued: 8/88%
  Rescue percent: 88%
[2]
  Injection into tremblor Mutants: % Rescued: 28/79%
  Average rescue ratio: 79%
[2]; [5]
  Screen 1 Rescue percent: 80%
  Screen 2 Rescue percent: 78%

## CCOC(=O)C1=CCN(S(C)(=O)=O)C1c1ccccc1 (racemic) [OK-C19]
[3]
  restoration of rhythmic contractions in tremblor embryos: failed to rescue the tremblor phenotype
NCX1hMO injected embryos
  restoration of rhythmic contractions in NCX1hMO injected embryos: unable to induce rhythmic contraction
VDAC2
  pull down of the 32 kD band (VDAC2): not detected

## CCOC(=O)C1=CCN(S(=O)(=O)c2ccc(C)cc2)C1c1cccc(C)c1 (racemic) [F7-I-B12]
[4]
  Soaking: % Rescued: 19/78%
  Rescue percent: 78%

## CCOC(=O)C1=CCN(S(=O)(=O)c2ccc(F)cc2)C1c1ccccc1 (racemic) [F7-II-B01]
[1]
  Injection with Morpholino: % Rescued: 6/67%
  Rescue percent: 67%
[2]
  Injection into tremblor Mutants: % Rescued: 21/81%
  Average rescue ratio: 81%
[2]; [5]
  Screen 1 Rescue percent: 91%
  Screen 2 Rescue percent: 79%

## Cc1ccc(S(=O)(=O)N2CC=C(C(=O)O)C2c2ccccc2)cc1 (centres unmarked) [F7 acid]
[4]
  Rescue percent: 21%

## CCOC(=O)C1=CCN(S(=O)(=O)c2ccccc2F)C1c1ccc(Cl)cc1 (centres unmarked) [F7-I-H01]
[1]
  Injection with Morpholino: % Rescued: 8/63%
  Rescue percent: 63%
[2]
  Injection into tremblor Mutants: % Rescued: 12/83%
  Average rescue ratio: 83%
[2]; [5]
  Screen 1 Rescue percent: 83%

## CCOC(=O)C1=CCN(S(=O)(=O)c2ccc(Cl)cc2)C1c1ccc(Br)cc1 (racemic) [F7-I-H05]
[1]
  Injection with Morpholino: % Rescued: 8/88%
  Rescue percent: 88%
[2]
  Injection into tremblor Mutants: % Rescued: 43/74%
  Average rescue ratio: 74%
[2]; [5]
  Screen 1 Rescue percent: 86%
  Screen 2 Rescue percent: 69%
  Screen 3 Rescue percent: 75%

## CCOC(=O)C1=CCN(S(=O)(=O)c2ccccc2Br)C1c1ccc(Cl)cc1 (centres unmarked) [F7-I-G09]
[1]
  Injection with Morpholino: % Rescued: 6/67%
  Rescue percent: 67%
[2]
  Injection into tremblor Mutants: % Rescued: 23/87%
  Average rescue ratio: 78%
[2]; [5]
  Screen 1 Rescue percent: 78%

## CCOC(=O)C1=CCN(S(=O)(=O)c2cccc(F)c2)C1c1ccc(F)cc1 (centres unmarked) [F7-II-B12]
[2]
  Injection into tremblor Mutants: % Rescued: 21/76%
  Average rescue ratio: 76%
[2]; [5]
  Screen 1 Rescue percent: 76%

## CCOC(=O)C1=CCN(S(=O)(=O)c2ccc(F)cc2)C1c1ccc(F)cc1 (racemic) [F7-II-A01]
[1]
  Injection with Morpholino: % Rescued: 8/38%
  Rescue percent: 38%
[2]
  Injection into tremblor Mutants: % Rescued: 27/74%
  Average rescue ratio: 74%
[2]; [5]
  Screen 1 Rescue percent: 74%

## CCOC(=O)C1=CCN(S(=O)(=O)c2ccc(F)cc2)C1c1cccc(C)c1 (centres unmarked) [F7-I-F09]
[1]
  Injection with Morpholino: % Rescued: 8/75%
  Rescue percent: 75%
[2]
  Injection into tremblor Mutants: % Rescued: 15/87%
  Average rescue ratio: 87%
[2]; [5]
  Screen 1 Rescue percent: 87%

## CCOC(=O)C1=CCN(S(=O)(=O)c2ccc(C)cc2)C1c1ccc(C(=O)OCC)cc1 (racemic) [F7-I-A06]
[4]
  Soaking: % Rescued: 17/88%
  Rescue percent: 88%

## CCOC(=O)C1=CCN(S(=O)(=O)c2ccccc2F)C1c1ccc(C)cc1 (centres unmarked) [Formula Io]
[1]
  Injection with Morpholino: % Rescued: 8/75%

## CCOC(=O)C1=CCN(S(=O)(=O)c2ccc(Cl)cc2)C1c1ccc(Cl)cc1 (centres unmarked) [F7-I-B07]
[4]
  Soaking: % Rescued: 18/80%
  Rescue percent: 80%

## CCOC(=O)C1=CCN(S(=O)(=O)c2ccc(F)cc2)C1c1ccc(Cl)c(Cl)c1 (centres unmarked) [F7-I-F05]
[1]
  Injection with Morpholino: % Rescued: 14/50%
  Rescue percent: 50%
[2]
  Injection into tremblor Mutants: % Rescued: 10/80%
  Average rescue ratio: 80%
[2]; [5]
  Screen 1 Rescue percent: 80%

## CCOC(=O)C1=CCN(S(=O)(=O)c2ccccc2F)C1c1ccc(F)cc1 (centres unmarked) [Formula In]
[1]
  Injection with Morpholino: % Rescued: 8/88%

## CCOC(=O)C1=CCN(S(=O)(=O)c2ccccc2F)C1c1ccc(Br)cc1 (racemic) [Formula Im]
[1]
  Injection with Morpholino: % Rescued: 8/88%

## CCOC(=O)C1=CCN(S(=O)(=O)c2ccc(C)cc2)C1c1ccccc1 (racemic) [F7]
[4]
  Rescue percent: 72%

## CCOC(=O)C1=CCN(S(=O)(=O)c2ccc(Cl)cc2)C1c1ccccc1 (racemic) [F7-II-A11]
[1]
  Injection with Morpholino: % Rescued: 6/0%
  Rescue percent: 0%
[2]
  Injection into tremblor Mutants: % Rescued: 30/73%
  Average rescue ratio: 73%
[2]; [5]
  Screen 1 Rescue percent: 73%

## CCOC(=O)C1=CCN(S(=O)(=O)c2ccc(C)cc2)C1c1ccc(F)cc1 (centres unmarked) [F7-I-B04]
[4]
  Soaking: % Rescued: 8/75%
  Rescue percent: 75%

## CCOC(=O)C1=CCN(S(=O)(=O)c2cccc(F)c2)C1c1ccc(F)cc1 (racemic) [OK-C125]
[3]
  restoration of rhythmic contractions in tremblor embryos: restored rhythmic contractions in the majority of tremblor embryos
NCX1hMO injected embryos
  restoration of rhythmic contractions in NCX1hMO injected embryos: retained their ability to restore rhythmic contractions
VDAC2
  pull down of the 32 kD band (VDAC2): pulled down

## CCOC(=O)C1=CCN(S(=O)(=O)c2ccccc2C)C1c1ccc(F)cc1 (racemic) [F7-I-G04]
[1]
  Injection with Morpholino: % Rescued: 8/75%
  Rescue percent: 75%
[2]
  Injection into tremblor Mutants: % Rescued: 26/85%
  Average rescue ratio: 85%
[2]; [5]
  Screen 1 Rescue percent: 78%
  Screen 2 Rescue percent: 88%
